Results published in article PMC8100298, “Histone deacetylase inhibitor resminostat in combination with sorafenib counteracts platelet-mediated pro-tumoral effects in hepatocellular carcinoma” (Scientific Reports, 2021).
Like-named read-outs stand apart in the source and are kept apart here.

What was measured:
[1] = test system: Hep3B2.1-7 human hepatic carcinoma; details: for Survival / Tumour weight, Mean: 21 days; for Tumour weight, Mean: SCID mice
Text: The orthotopic xenograft mouse model of Hep3B2.1–7 human hepatic carcinoma was previously established. Tumors were created by injection of 2.5 × 10^6 Hep3B2.1-7 cells (ATCC, RRID:CVCL_0326; Virginia, Manassas, USA) into the main lobe of the liver of anaesthetized female SCID mice (C.B-17-Igh-1bPrkdc(scid)). […] Treatments were continued for 21 days. Treatment of animals was ceased when the body weight dropped below 85% of that on entry of the study. Only mice culled at the termination date were used to determine the tumor weight. The experiment was conducted by vivoPharm pty Ltd (Bundoora, Australia) in accordance with the principles outlined in the “Australian Code of Practice for the Care and Use of Animals for Scientific Purposes”, 7th Edition, 2004 (National Health and Medical Research Council, Canberra, Australia). All procedures involving animals were reviewed and approved by the University of Adelaide Animal Ethics Committee. The study was carried out in compliance with the ARRIVE guidelines (http://www.nc3rs.org.uk/page.asp?id=1357). […]
invasion assay. The ODs of the invaded cells were normalized relative to ODs from tissue […]
Orthotopic xenograft mouse model
The orthotopic xenograft mouse model of Hep3B2.1-7 human hepatic carcinom a was previously established. The experiment was conducted by vivoPharm pty Ltd (Australia) in accordance with the principles outlined in the Australian Code of Practice for the Care and Use of Animals for Scientific Purposes, 7th Edition, 2004 (National Health and Medical Research Council). Procedures involving the care and use of animals in thi s study were reviewed and approved by the University of Adelaide Animal Ethics Committee. The study was carried out in compliance with the ARRIVE guidelines
(http://www.nc3rs.org.uk/page.asp?id=1357).
The animals were delivered to the test facility 1 1 days prior inoculation. On arrival, all animals received a detailed physical examination, including body weight measurement by the […]
technical staff. […] Each a nimal was identified by a transponder (Bar Code Data Systems Pty Ltd, Botany Bay, NSW, Australia) that could be scanned with a barcode reader (DataMars LabMax I). The transponder was implanted by subcutaneous injection between the shoulder blades while the mouse was under isoflurane-induced anaesthesia. The animals were housed in groups of six in micro-isolator cages (two cages per group). Each cage was clearly labelled with a cage card indicating study number, group, gender, and prescribed dose concentration and dose volume. The animals were kept in a controlled environment (targeted ranges: temperature 21 ± 3°C, humidity 30 -70%, 15 air changes per hour), with a light/dark cycle each of 12 hours, and under barrier (quarantine) conditions. Temperature and relative humidity were monitored continuously. All animals were subjected to the same environmental conditions. A standard certified commercial rodent diet (Rat and Mouse Cubes, Specialty Feeds Pty Ltd, Glen Forrest, WA, Australia) and tap water were provided to the animals ad libitum. Food supply was sterilized by autoclaving, and water […]
supply was sterilized by acidification with hydrochloric acid (pH 2.4-2.7) by Laboratory Animal Services, University of Adelaide (Adelaide, SA, Australia). Additional feed (a nimal seed, Magill Grain Store, Magill, SA, Australia), as well as wet standard feed was provided to all animals from Day 7 onwards, as a measure to minimize body w eight loss. The extent of adverse reaction was assessed during the study and mice were culled if severe adverse […]
The age range of the mice were 12-16 weeks at
Hep3B2.1-7 human hepatic carcinoma cells were sourced from the American Type Culture […]
Collection (ATCC; Virginia, USA).

[2] = test system: PLC/PRF/5 HCC cells; experiment: Intracellular flow cytometry (AcLys, H3K27Ac); format: cell-based; details: 1 µM or 3 µM, 24 hours (Fig. S1B)
Method: Supplemental Figures and Figure legends
Figure S1. Inhibition of cancer cell growth by the broad-spectrum HDACI resminostat
A. Inhibition of HDAC1 to 11 by resminostat determined by in vitro HDAC activity assays.
IC50 data from three independent experiments are shown as mean ± SD.
B. Intracellular flow cytometry using antibodies targeting acetyl lysine (AcLys) and the H3K27
acetylation mark (H3K27Ac). IgG isotype controls were used for each antibody. PLC/PRF/5
HCC cells were treated with vehicle control ( 0.1 % DMSO), 1 µM or 3 µM resminostat for 24
hours. For AcLys, the geometric mean fluore scence intensities (gMFI) are shown. For
H3K27Ac, the ratios of the gMFIs for H3K27Ac relative to Histone H3 are shown. D ata of
three technical replicates are presented as mean ± SD.
(1 picture or pasted object on this page, not shown here)
(100×, 78440; Thermo Scientific, Massachusetts, US). Following incubation for 1 h at 4°C,
The protein concentration of the
Fisher Scientific, Massachusetts, US ). Equal amounts of protein lysates and a pre-stained
US) and transferred to PVDF membranes. The membranes were probed using the relevant […]
secondary fluorescence labelled antibodies for 45 min in the dark at RT, washed twice in […]
cells were measured using the Miltenyi MACSQuant Analyser 10 (Miltenyi) and analysed with […]
counted in a Neubauer chamber before the required number of platelets was activated by […]

With CN(C)Cc1ccc(S(=O)(=O)n2ccc(/C=C/C(=O)NO)c2)cc1 [resminostat, Resminostat] the Survival ([1]; 15 mg/kg oral once daily) was 10/12, the “Tumour weight, Mean” value ([1]; 15 mg/kg oral once daily) was 2.55 g and the Survival ([1]; 40 mg/kg oral once daily) was 10/12. For the same compound, the “Tumour weight, Mean” value ([1]; 40 mg/kg oral once daily) was 1.83 g, the “tumor weight compared to the vehicle control” value ([1]; daily resminostat 15 and 40 mg/kg, sorafenib 40 mg/kg, or combination (Fig. 1B)) was “significantly reduced tumor weight” and the “acetylation of histone mark H3K27” value [2] was “hyperacetylation”. For the same compound, the “global acetylation level (AcLys)” value [2] was “increase of the global acetylation level in HCC cells in a dose-dependent manner”.
